For one series, the system named is acne patients. Kind of series: Pilot clinical study: safety evaluation. It counts as in vivo, human. The settings on record: BPO once a day, Day 1-Day 7, 14 subjects. As for the experimental part:
(§1) The pilot study was performed for 6 weeks with 14 subjects between 18-23 years. The primary endpoints were safety and efficacy trends. Two different bacterial formulations: A2 (a 2-strain mixture comprising strains C3 and K8 of P. acnes) and B4 (a 4-strain mixture comprising strains C3, K8, A5, and F4 of P. acnes) were tested.
(§2) Subjects were randomly distributed into two arms with different bacterial formulations administered to the subjects in each arm. Bacterial formulations were double-blinded: Arm 1: n=8 subjects received formulation A2. Arm 2: n=6 subjects received formulation B4. Subjects were evaluated on Day 1, Day 7, Day 21, and Day 42. In the first week, between Day 1 and Day 7, all subjects received Benzoyl peroxide (BPO) treatment (applied once a day). In the following 5 weeks, between Day 7 and Day 42, all subjects received bacterial formulation (gel applied 2× per day). FIG. 8A depicts the design of the pilot study.
The safety of the administered formulations was evaluated, for example, by visual evaluation of the redness, irritation or any other skin problems during each visit. No safety issues were observed during the study. Seven subjects reported dry or red skin during the use of BPO (Day 1-Day 7). […] No adverse effects were observed associated with the administration of live bacteria.

In another series the test system is skin microbiome. Description: Pilot clinical study: bacterial species composition of skin microbiome (16S). It counts as in vivo, human. To be noted: after BPO application (Day 7). As for the experimental part: as §1, §2
The composition of bacterial species (16S) in the microbiome samples were analyzed on each visit. […]
When relating the bacterial species (16S) data with the strain level data (SLST) of P. acnes, it was observed that on Day 1 (ground state) the relative abundance of P. acnes was lower in acceptors (34%) compared to non-acceptors (41%). […] Relative abundances were determined using classical 16S amplicon sequencing. […]

Series [1] in a line: MBC test, 24 h exposure to benzoic acid, then 4 days on RCM agar. The settings on record: all P. acnes strains tested.
For the next series, the system named is P. acnes strains. Description: Inhibition of P. acnes strains by salicylic acid. Type of series: cell-based.
The next series has as its system P. acnes. To be noted: Allgaier et al., 1985; cited from earlier work.

For the molecule `O=C(OOC(=O)c1ccccc1)c1ccccc1` [BPO, Benzoyl peroxide], in the series with acne patients, the “subjects reporting dry or red skin” value was “Seven”. Moreover, the “change of total P. acnes population” value with skin microbiome is recorded as “decrease”. With `O=C(O)c1ccccc1` [Benzoic acid], the “concentration of benzoic acid affecting the growth of all strains (MBC test)” value in series [1] is reported as “greater than 0.31 % vol/vol”. Turning to `O=C(O)c1ccccc1O` [salicylic acid], in the series with P. acnes strains, the “inhibition of P. acnes strains” value is listed as “not inhibited”. For Epidermin, in the series with P. acnes, the “activity against P. acnes” value is recorded as “highly active”.

The values above are taken from patent US11541081B2, “Methods and compositions for changing the composition of the skin microbiome using complex mixtures of bacterial strains” (priority 2016, dated 2023).
